Measurements published in paper PMC13580833, “Investigation of Thiazolidine‐2,4‐Dione Derivatives as Acetylcholinesterase Inhibitors: Synthesis, In Vitro Biological Activities and In Silico Studies” (ChemistryOpen, 2025).

Legend:
[1] = Ferric reducing/antioxidant power (FRAP) assay; conditions: ferrous ion equivalents per gram of test compound; triplicate
Protocol: The ferric reducing/antioxidant power (FRAP) assay was performed based on a previous study.[[15a]] […] A standard curve was drawn to analyze different concentrations of ferrous sulfate (0.1–1 mM). The analysis was conducted in triplicates and the value of antioxidant activity results were expressed in mmol ferrous ion equivalents per gram of test compounds (mmol Fe^2+/g).

[2] = biological target: BChE (Homo sapiens, UniProt P06276); experiment: BChE inhibition assay (Ellman's method); format: biochemical
Sequence of BChE (P06276 29-602, species assumed): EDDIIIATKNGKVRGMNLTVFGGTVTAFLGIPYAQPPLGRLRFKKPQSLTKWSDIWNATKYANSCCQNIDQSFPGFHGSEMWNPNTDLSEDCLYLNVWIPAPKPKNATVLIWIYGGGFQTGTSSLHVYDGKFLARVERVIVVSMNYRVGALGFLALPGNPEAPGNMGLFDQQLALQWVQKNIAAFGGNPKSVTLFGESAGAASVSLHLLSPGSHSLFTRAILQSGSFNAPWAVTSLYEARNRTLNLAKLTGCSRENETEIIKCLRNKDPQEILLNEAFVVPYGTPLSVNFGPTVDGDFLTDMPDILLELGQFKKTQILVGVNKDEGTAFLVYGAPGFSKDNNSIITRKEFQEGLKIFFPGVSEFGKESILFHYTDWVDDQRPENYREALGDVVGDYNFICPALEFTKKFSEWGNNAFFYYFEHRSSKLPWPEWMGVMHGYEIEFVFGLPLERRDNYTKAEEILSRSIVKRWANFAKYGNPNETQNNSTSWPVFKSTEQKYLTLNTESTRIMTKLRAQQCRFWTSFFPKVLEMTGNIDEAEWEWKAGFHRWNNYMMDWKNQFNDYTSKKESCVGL
Protocol: The ChEs inhibitory activities based on Ellman's method were assessed using previously described methods.[[15b]] Acetylcholinesterase (electric eel, […]) inhibition assays were conducted with ATCI (10 mM) and DTNB (10 mM). The experiment required adding 50 μL of AChE in Tris‐HCl buffer (pH 8.0), 100 μL substrate, and 50 μL of the sample dissolved in DMSO (10 % in Tris‐HCl buffer) to the wells. For BChE inhibition, mixtures contained 30 μL of 10 mM DTNB, 5 μL of BChE, 30 μL of 10 mM BTChCl (10 mM), and 10 μL of samples.
All samples were dissolved in 10 % DMSO, and the experiment was performed in triplicate.

[3] = MTT assay, Aβ1‐42‐induced toxicity in PC12 cells; format: cell-based, Rattus norvegicus; conditions: rat; PC12 cells, CHT1 20 μM, after 48 h, MTT; read-out: Viability percentage of that of the control
Protocol: (§1) Rattus norvegicus pheochromocytoma PC12 cells (Pastor Institute, Iran) were cultured in Dulbecco's modified Eagle's medium (DMEM) supplemented with 10 % fetal bovine serum (FBS) and 1 % penicillin/streptomycin (Gibco) at 37 °C with 5 % CO2. PC12 cells were treated with different concentrations of CHT1 for 12, 24, or 48 hours, and promising results were obtained.
(§2) In addition, the Aβ1‐42 peptides were diluted in water and preaggregated at 37 °C for 7 days before use. The cellular AD model was successfully constructed in vitro by incubating PC12 cells with 100 μM aggregated Aβ for 24 hours. DMSO (50 μL) and 0.5 mg/mL MTT (10 μL) stock solution were added to each well for 4 hours of incubation. After 30 minutes, the plates were shaken, and the optical density was measured at 570 nm using an ELISA reader (Biotech). The MTT assay used by Pirali et al.,[23] which underwent slight modifications, yielded promising results.

[4] = tested on: PC12 cells; experiment: MTT assay, Aβ1‐42‐induced toxicity in PC12 cells; format: cell-based, Rattus norvegicus; conditions: 0.31–20 μM CHT1, 12, 24 and 48 h
Protocol: as §1, §2

[5] = tested on: p‐Tau/Tau; experiment: Western blot of p‐Tau/Tau in Aβ‐exposed PC12 cells; format: cell-based, Rattus norvegicus; conditions: for Decrease of p‐Tau/Tau compared with the Aβ group: Aβ1‐42 100 μM
Protocol: (§3) PC12 cells were seeded in a 6‐well plate, treated CHT1 at concentrations of 5 and 8 μM for 24 hours, washed with cold PBS, and lysed with lysis buffer for 30 minutes on ice. After centrifugation at 12,000×g for 10 minutes at 4 °C, the lysates were transferred to new tubes. The Bradford assay was utilized to determine the protein concentration.[24] SDS–PAGE was used to separate the denatured proteins, which were subsequently transferred to PVDF membranes. The membranes were blocked with nonfat dry milk in PBS containing 0.1 % Tween‐20 (PBST) and then incubated overnight at 4 °C with primary antibodies against p‐Taul/Tau, HSP70, and β‐actin as a control. Subsequently, the membranes were exposed to a secondary antibody conjugated with horseradish peroxidase (HRP) for 2 hours at room temperature. Using the densitometric scanning technique in the ImageJ program, the density of the protein bands in the relative direction was determined.

[6] = tested on: HSP70; experiment: Western blot of HSP70 in Aβ‐exposed PC12 cells; format: cell-based, Rattus norvegicus; conditions: for Decrease of HSP70 expression compared with the Aβ group: Aβ1‐42 100 μM
Protocol: as §3

[7] = tested on: PC12 cells; experiment: Growth of PC12 cells in response to treatments (Figure 5); format: cell-based, Rattus norvegicus; conditions: CHT1 pretreatment 5 and 8 μM in the presence of Aβ, 24 hours
[8] = Western blotting, CHT1 5 and 8 μM
[9] = PC12 cells, Aβ1‐42 100 μM alone

COc1ccc(C=C2SC(O)=NC2=O)cc1 [CHT1, 5‐(4‐Methoxybenzylidene)thiazolidine‐2,4‐dione]
Antioxidant capacity (FRAP) [1]: 0.78 mmol Fe^2+/g
IC50 [2]: 69.1 nM
viability at 48 h, 20 μM [3]: 66.5%
Acute toxicity in PC12 cells [4]: acute toxicity was not observed
Effect of pretreatment on Aβ1‐42‐induced cell death ([4]; PC12 cells, Aβ1‐42 100 μM): significant reduction in Aβ1‐42‐induced cell death in a dose‐dependent manner
Decrease of p‐Tau/Tau compared with the Aβ group ([5]; PC12 cells, 5 μM): 2.26 fold
Decrease of p‐Tau/Tau compared with the Aβ group ([5]; PC12 cells, 8 μM): 2.01 fold
p‐Tau expression level [5, 8]: downregulated
Decrease of HSP70 expression compared with the Aβ group ([6]; PC12 cells, 5 μM): 2.1 fold
Decrease of HSP70 expression compared with the Aβ group ([6]; PC12 cells, 8 μM): 2.26 fold
HSP70 expression level [6, 8]: downregulated
Density of PC12 cells compared with Aβ (100 μM) [7]: increased the density of PC12 cells

O=C1NC(=O)C(=Cc2ccccc2O)S1 [CHT4, 5‐(2‐Hydroxybenzylidene)thiazolidine‐2,4‐dione]
Antioxidant capacity (FRAP) [1]: 0.45 mmol Fe^2+/g
IC50 [2]: 102 nM

O=C1O[C@H]([C@@H](O)CO)C(O)=C1O [ascorbic acid, reference compound]
Antioxidant capacity (FRAP) [1]: 1.15 mmol Fe^2+/g

O=C1NC(=O)C(=Cc2cccc3ccccc23)S1 [CHT5, 5‐((Naphthalene‐1‐yl)methylene)thiazolidine‐2,4‐dione]
Antioxidant capacity (FRAP) [1]: 0.26 mmol Fe^2+/g
IC50 [2]: 141 nM

O=C1N=C(O)SC1=Cc1ccc(Cl)cc1 [CHT2, 5‐(4‐Chlorobenzylidene)thiazolidine‐2,4‐dione]
IC50 [2]: 125 nM

COc1cc2c(cc1OC)C(=O)C(CC1CCN(Cc3ccccc3)CC1)C2 (centres unmarked) [Donepezil, donepezil, reference compound]
Decrease of HSP70 expression compared with the Aβ group ([6]; PC12 cells, donepezil 75 μM (positive control)): 1.92 fold

O=C1NC(=O)C(=Cc2cccc(O)c2)S1 [CHT3, 5‐(3‐Hydroxybenzylidene)thiazolidine‐2,4‐dione]
Antioxidant capacity (FRAP) [1]: 0.41 mmol Fe^2+/g
IC50 [2]: 81.9 nM

amyloid beta 1–42 [Aβ1‐42, reference compound]
p‐Tau/Tau ratio greater than in the control group [5, 9]: 4.96 fold
HSP70 level greater than in the control group [6, 9]: 3.35 fold
